Publication PMC8185074, “Anchor extension: a structure-guided approach to design cyclic peptides targeting enzyme active sites” (Nature Communications, 2021)
“Also recorded” adds a separate entry of the source.

Assays:
Type in all cases: biochemical
HDAC9 = HDAC9 (Homo sapiens, UniProt Q9UKV0); assay: HDAC9 profiling of SHA anchor and early peptides
HDAC5 = HDAC5 (Homo sapiens, UniProt Q9UQL6); assay: HDAC5 profiling of SHA anchor and early peptides
HDAC10 = target: T1, HDAC10 (Homo sapiens, UniProt Q969S8); assay: HDAC10 profiling of SHA anchor
T1 sequence (Q969S8 1-669): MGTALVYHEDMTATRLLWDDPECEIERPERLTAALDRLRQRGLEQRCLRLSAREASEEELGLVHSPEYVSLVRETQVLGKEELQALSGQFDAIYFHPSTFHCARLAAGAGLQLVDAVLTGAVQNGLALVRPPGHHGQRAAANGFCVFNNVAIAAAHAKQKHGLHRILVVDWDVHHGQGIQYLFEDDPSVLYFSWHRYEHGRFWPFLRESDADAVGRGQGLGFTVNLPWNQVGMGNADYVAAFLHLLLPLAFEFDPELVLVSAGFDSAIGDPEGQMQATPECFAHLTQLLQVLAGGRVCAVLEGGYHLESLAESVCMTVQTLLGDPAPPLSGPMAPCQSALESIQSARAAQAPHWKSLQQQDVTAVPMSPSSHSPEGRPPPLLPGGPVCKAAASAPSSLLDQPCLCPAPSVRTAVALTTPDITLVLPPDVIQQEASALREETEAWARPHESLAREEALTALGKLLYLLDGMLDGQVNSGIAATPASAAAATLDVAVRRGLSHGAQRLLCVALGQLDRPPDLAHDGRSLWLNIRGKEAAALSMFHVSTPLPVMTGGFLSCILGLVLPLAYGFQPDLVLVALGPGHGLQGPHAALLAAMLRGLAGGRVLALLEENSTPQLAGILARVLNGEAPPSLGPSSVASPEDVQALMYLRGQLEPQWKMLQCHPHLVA
Text: Supplement 41467_2021_23609_MOESM7_ESM.zip/HDACActivity_RawData.xlsx, sheet "SHA" | column: HDAC10

HDAC11 = target: T2, HDAC11 (Homo sapiens, UniProt Q96DB2); assay: HDAC11 profiling of SHA anchor
T2 sequence (Q96DB2 1-347): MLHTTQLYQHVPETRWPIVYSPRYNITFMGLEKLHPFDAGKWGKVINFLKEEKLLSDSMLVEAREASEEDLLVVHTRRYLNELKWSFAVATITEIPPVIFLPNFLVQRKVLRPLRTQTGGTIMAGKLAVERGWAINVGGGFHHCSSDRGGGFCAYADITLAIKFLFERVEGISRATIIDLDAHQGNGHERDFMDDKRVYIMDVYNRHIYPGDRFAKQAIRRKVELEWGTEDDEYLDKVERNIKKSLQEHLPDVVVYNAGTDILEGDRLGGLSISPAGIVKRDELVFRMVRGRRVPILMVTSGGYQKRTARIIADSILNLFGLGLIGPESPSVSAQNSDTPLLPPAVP

HDAC4 = target: T3, HDAC4 (Homo sapiens, UniProt P56524); assay: HDAC4 inhibition/binding test (BPS Biosciences HDAC fluorogenic assay kit)
T3 construct: purchased BPS Biosciences
T3 sequence (P56524 whole entry): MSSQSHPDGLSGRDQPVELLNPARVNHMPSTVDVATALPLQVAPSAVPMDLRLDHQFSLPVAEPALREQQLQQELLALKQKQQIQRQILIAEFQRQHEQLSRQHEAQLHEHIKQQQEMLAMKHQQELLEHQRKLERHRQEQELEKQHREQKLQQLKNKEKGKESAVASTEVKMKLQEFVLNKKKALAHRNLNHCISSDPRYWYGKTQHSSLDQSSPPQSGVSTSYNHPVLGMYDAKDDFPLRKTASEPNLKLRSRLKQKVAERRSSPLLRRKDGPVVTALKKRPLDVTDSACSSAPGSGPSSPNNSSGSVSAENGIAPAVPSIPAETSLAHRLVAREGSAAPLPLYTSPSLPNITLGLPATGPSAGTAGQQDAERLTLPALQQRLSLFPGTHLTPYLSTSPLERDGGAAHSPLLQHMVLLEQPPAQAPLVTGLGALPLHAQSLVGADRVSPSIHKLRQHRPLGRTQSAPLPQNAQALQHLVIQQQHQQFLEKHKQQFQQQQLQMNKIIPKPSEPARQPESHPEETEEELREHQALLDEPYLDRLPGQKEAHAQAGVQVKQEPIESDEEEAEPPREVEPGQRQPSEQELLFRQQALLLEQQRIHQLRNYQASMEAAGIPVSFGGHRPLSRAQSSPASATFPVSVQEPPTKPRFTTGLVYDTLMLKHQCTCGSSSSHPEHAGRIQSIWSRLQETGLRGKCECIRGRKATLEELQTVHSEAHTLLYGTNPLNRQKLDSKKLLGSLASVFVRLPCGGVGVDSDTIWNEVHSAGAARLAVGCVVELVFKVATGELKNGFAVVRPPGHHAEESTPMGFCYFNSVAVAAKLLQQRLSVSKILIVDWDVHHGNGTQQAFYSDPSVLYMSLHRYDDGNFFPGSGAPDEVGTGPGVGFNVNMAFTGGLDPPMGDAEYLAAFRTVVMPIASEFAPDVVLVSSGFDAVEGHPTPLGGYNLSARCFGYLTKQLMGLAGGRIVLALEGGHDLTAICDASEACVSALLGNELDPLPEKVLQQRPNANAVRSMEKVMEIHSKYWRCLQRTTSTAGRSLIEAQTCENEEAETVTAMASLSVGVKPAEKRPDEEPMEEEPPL

HDAC5, sequence (Q9UQL6 whole entry): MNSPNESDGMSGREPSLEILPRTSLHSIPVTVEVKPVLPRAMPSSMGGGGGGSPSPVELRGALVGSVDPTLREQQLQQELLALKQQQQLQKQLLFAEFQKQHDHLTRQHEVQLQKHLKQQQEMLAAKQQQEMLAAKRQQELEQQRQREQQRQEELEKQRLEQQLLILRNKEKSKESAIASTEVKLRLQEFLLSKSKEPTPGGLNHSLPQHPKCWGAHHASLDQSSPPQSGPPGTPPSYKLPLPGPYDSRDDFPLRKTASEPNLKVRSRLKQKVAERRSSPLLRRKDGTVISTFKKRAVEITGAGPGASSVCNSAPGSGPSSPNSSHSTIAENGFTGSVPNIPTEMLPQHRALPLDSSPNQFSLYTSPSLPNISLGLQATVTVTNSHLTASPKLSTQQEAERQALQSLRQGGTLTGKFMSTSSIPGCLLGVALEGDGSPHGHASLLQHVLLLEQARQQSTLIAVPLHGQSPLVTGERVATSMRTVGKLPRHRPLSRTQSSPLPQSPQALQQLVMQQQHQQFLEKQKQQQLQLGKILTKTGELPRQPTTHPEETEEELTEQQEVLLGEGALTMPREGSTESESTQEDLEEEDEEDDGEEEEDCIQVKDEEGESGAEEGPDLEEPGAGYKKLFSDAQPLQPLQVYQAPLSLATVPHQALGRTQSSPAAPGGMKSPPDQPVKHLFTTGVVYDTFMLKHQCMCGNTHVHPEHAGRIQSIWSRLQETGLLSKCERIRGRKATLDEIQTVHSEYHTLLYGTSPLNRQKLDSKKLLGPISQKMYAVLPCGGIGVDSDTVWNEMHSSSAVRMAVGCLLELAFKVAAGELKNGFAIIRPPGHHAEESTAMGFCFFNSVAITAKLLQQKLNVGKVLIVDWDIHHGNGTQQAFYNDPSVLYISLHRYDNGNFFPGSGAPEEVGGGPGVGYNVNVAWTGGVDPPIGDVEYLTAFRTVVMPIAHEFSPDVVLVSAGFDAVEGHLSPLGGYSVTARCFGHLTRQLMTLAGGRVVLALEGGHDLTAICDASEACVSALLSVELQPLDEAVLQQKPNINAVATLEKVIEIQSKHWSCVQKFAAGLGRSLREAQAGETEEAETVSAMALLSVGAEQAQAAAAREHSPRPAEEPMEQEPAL
HDAC9, sequence (Q9UKV0 whole entry): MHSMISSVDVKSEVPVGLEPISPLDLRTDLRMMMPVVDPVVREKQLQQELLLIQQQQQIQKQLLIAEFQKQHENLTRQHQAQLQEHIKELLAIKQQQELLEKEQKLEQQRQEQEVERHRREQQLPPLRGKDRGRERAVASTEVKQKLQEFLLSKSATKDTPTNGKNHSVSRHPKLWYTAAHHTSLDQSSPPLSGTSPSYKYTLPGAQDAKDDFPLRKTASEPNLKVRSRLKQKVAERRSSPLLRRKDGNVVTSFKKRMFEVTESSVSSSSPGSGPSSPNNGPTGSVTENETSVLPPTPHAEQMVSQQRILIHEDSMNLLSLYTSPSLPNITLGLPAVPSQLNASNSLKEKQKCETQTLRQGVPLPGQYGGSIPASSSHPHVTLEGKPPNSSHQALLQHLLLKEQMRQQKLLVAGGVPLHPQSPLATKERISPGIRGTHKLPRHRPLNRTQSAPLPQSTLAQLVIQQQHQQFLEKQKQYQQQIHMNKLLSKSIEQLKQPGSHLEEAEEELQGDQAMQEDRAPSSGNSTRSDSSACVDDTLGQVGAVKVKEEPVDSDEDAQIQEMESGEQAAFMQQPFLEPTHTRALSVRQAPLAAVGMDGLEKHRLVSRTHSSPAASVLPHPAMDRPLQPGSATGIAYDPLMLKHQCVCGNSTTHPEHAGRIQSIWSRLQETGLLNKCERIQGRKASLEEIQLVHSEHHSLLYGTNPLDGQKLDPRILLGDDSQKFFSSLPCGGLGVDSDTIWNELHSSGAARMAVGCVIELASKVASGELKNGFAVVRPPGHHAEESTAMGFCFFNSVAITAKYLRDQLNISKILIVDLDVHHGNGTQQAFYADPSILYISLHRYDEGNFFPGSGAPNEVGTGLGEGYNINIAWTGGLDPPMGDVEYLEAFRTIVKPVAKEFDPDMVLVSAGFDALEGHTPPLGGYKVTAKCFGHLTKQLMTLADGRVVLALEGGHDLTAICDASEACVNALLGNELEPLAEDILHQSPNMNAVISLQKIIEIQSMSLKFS

With `N[C@@H](CCCCCS)C(=O)O` [SHA, 2S-2-amino-7-sulfanylheptanoic acid] the “binding to HDAC9” value (HDAC9) was “not detected binding; also recorded: no binding”, the “HDAC9 raw activity signal” value (HDAC9; Conc. 1.00E-05 M) was 866095 and the “HDAC9 raw activity signal” value (HDAC9; Conc. 1.11E-06 M) was 1324190. The “HDAC9 raw activity signal” value (HDAC9; Conc. 1.23E-07 M) was 1424055, the “HDAC9 raw activity signal” value (HDAC9; Conc. 1.37E-08 M) was 1252931 and the “HDAC9 raw activity signal” value (HDAC9; Conc. 1.52E-09 M) was 1327312. For the same compound, the “HDAC9 raw activity signal” value (HDAC9; Conc. 3.33E-06 M) was 1253108, the “HDAC9 raw activity signal” value (HDAC9; Conc. 3.70E-07 M) was 1495255 and the “HDAC9 raw activity signal” value (HDAC9; Conc. 4.12E-08 M) was 1362638. For the same compound, the “HDAC9 raw activity signal” value (HDAC9; Conc. 4.57E-09 M) was 1400560, the “HDAC9 raw activity signal” value (HDAC9; Conc. 5.08E-10 M) was 1258385 and the “binding to HDAC5” value (HDAC5) was “not detected binding; also recorded: no binding”. The “HDAC5 raw activity signal” value (HDAC5; Conc. 1.00E-05 M) was 673421, the “HDAC5 raw activity signal” value (HDAC5; Conc. 1.11E-06 M) was 815210 and the “HDAC5 raw activity signal” value (HDAC5; Conc. 1.23E-07 M) was 790981. The “HDAC5 raw activity signal” value (HDAC5; Conc. 1.37E-08 M) was 671078, the “HDAC5 raw activity signal” value (HDAC5; Conc. 1.52E-09 M) was 600695 and the “HDAC5 raw activity signal” value (HDAC5; Conc. 3.33E-06 M) was 650638. The “HDAC5 raw activity signal” value (HDAC5; Conc. 3.70E-07 M) was 757112, the “HDAC5 raw activity signal” value (HDAC5; Conc. 4.12E-08 M) was 716396 and the “HDAC5 raw activity signal” value (HDAC5; Conc. 4.57E-09 M) was 610467. For the same compound, the “HDAC5 raw activity signal” value (HDAC5; Conc. 5.08E-10 M) was 252249, the “HDAC10 raw activity signal” value (HDAC10; Conc. 1.00E-05 M) was 78535 and the “HDAC10 raw activity signal” value (HDAC10; Conc. 1.11E-06 M) was 200617. The “HDAC10 raw activity signal” value (HDAC10; Conc. 1.23E-07 M) was 227566, the “HDAC10 raw activity signal” value (HDAC10; Conc. 1.37E-08 M) was 231393 and the “HDAC10 raw activity signal” value (HDAC10; Conc. 1.52E-09 M) was 230961. The “HDAC10 raw activity signal” value (HDAC10; Conc. 3.33E-06 M) was 158362, the “HDAC10 raw activity signal” value (HDAC10; Conc. 3.70E-07 M) was 217828 and the “HDAC10 raw activity signal” value (HDAC10; Conc. 4.12E-08 M) was 237632. The “HDAC10 raw activity signal” value (HDAC10; Conc. 4.57E-09 M) was 278288, the “HDAC10 raw activity signal” value (HDAC10; Conc. 5.08E-10 M) was 236379 and the “binding to HDAC11” value (HDAC11) was “no binding”. For the same compound, the “HDAC11 raw activity signal” value (HDAC11; Conc. 1.00E-05 M) was 857709, the “HDAC11 raw activity signal” value (HDAC11; Conc. 1.11E-06 M) was 1073570 and the “HDAC11 raw activity signal” value (HDAC11; Conc. 1.23E-07 M) was 1094662. The “HDAC11 raw activity signal” value (HDAC11; Conc. 1.37E-08 M) was 1209318, the “HDAC11 raw activity signal” value (HDAC11; Conc. 1.52E-09 M) was 1051037 and the “HDAC11 raw activity signal” value (HDAC11; Conc. 3.33E-06 M) was 847001. The “HDAC11 raw activity signal” value (HDAC11; Conc. 3.70E-07 M) was 1077158, the “HDAC11 raw activity signal” value (HDAC11; Conc. 4.12E-08 M) was 1064044 and the “HDAC11 raw activity signal” value (HDAC11; Conc. 4.57E-09 M) was 1134026. For the same compound, the “HDAC11 raw activity signal” value (HDAC11; Conc. 5.08E-10 M) was 1061165, the “binding to HDAC4” value (HDAC4) was “not detected binding” and the “HDAC4 raw activity signal” value (HDAC4; Conc. 1.00E-05 M) was 1818034. The “HDAC4 raw activity signal” value (HDAC4; Conc. 1.11E-06 M) was 1589038, the “HDAC4 raw activity signal” value (HDAC4; Conc. 1.23E-07 M) was 1682923 and the “HDAC4 raw activity signal” value (HDAC4; Conc. 1.37E-08 M) was 1569641. The “HDAC4 raw activity signal” value (HDAC4; Conc. 1.52E-09 M) was 1604062, the “HDAC4 raw activity signal” value (HDAC4; Conc. 3.33E-06 M) was 1651123 and the “HDAC4 raw activity signal” value (HDAC4; Conc. 3.70E-07 M) was 1661788. The “HDAC4 raw activity signal” value (HDAC4; Conc. 4.12E-08 M) was 1863011, the “HDAC4 raw activity signal” value (HDAC4; Conc. 4.57E-09 M) was 1554862 and the “HDAC4 raw activity signal” value (HDAC4; Conc. 5.08E-10 M) was 1555289.
